Data reported in ChEMBL document CHEMBL1201862, “PubChem BioAssay data set” (2004).
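96-well plates; 48 h exposure; 5 concentrations. Endpoints by linear interpolation between flanking doses. Not reached: highest tested concentration assigned. GI50 is the concentration that inhibits growth by half.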 Activity calls are given as the source filed them. Rule as the data show it: active = GI50 up to about 1.1 µM and inactive = higher.

Columns and labels:
Assay in all cases: DTP human tumour cell line panel, 48 h
NCI-H522 = test system: NCI-H522
LOX IMVI = test system: LOX IMVI
M14 = test system: M14
HT-29 = test system: HT-29
SR = test system: SR
OVCAR-8 = test system: OVCAR-8
UACC-257 = test system: UACC-257
OVCAR-3 = test system: OVCAR-3
SF-268 = test system: SF-268
SK-OV-3 = test system: SK-OV-3
NCI-H226 = test system: NCI-H226
HCT-116 = test system: HCT-116
IGROV-1 = test system: IGROV-1
HOP-62 = test system: HOP-62
EKVX = test system: EKVX
CAKI-1 = test system: CAKI-1
SF-539 = test system: SF-539
A498 = test system: A498
KM12 = test system: KM12
RXF 393 = test system: RXF 393

Row | SMILES | GI50 (NCI-H522) | GI50 (LOX IMVI) | GI50 (M14) | GI50 (HT-29) | GI50 (SR) | GI50 (OVCAR-8) | GI50 (UACC-257) | GI50 (OVCAR-3) | GI50 (SF-268) | GI50 (SK-OV-3) | GI50 (NCI-H226) | GI50 (HCT-116) | GI50 (IGROV-1) | GI50 (HOP-62) | GI50 (EKVX) | GI50 (CAKI-1) | GI50 (SF-539) | GI50 (A498) | GI50 (KM12) | GI50 (RXF 393)
1 | COc1cccc(C2c3cc4c(cc3OC(N3CCOCC3)C2C)OCO4)c1 (centres undefined) | 8.24 µM (inactive) | 5.28 µM (inactive) | 7.05 µM (inactive) | 4.68 µM (inactive) | 9.1 µM (inactive) | 23.4 µM (inactive) | 14.8 µM (inactive) | 7.74 µM (inactive) | 16.7 µM (inactive) | 17.9 µM (inactive) | 15.6 µM (inactive) | 13.2 µM (inactive) | 15 µM (inactive) | 16.2 µM (inactive) | 26.7 µM (inactive) | – | – | – | – | –
2 | COc1ccc2c(c1)OC(c1ccccc1O)CC2=O (centres undefined) | 27.9 µM (inactive) | – | 39.9 µM (inactive) | 74.6 µM (inactive) | – | 47.6 µM (inactive) | 39.5 µM (inactive) | 28.1 µM (inactive) | 29.2 µM (inactive) | – | – | 29.5 µM (inactive) | – | 41.4 µM (inactive) | 96.8 µM (inactive) | 51.5 µM (inactive) | 45.9 µM (inactive) | 53.1 µM (inactive) | 27.5 µM (inactive) | –
3 | CCOC(=O)c1sc2nc(SC)nc(N3CCCCC3)c2c1N | > 100 µM (inactive) | > 100 µM (inactive) | > 100 µM (inactive) | > 100 µM (inactive) | > 100 µM (inactive) | > 100 µM (inactive) | 5.07 µM (inactive) | > 100 µM (inactive) | > 100 µM (inactive) | > 100 µM (inactive) | > 100 µM (inactive) | > 100 µM (inactive) | > 100 µM (inactive) | > 100 µM (inactive) | – | > 100 µM (inactive) | – | > 100 µM (inactive) | > 100 µM (inactive) | > 100 µM (inactive)
4 | O=C(NC(Cc1ccc(Cl)cc1)C(=O)O)c1ccc(I)cc1 (centres undefined) | > 83.2 µM (inactive) | > 100 µM (inactive) | – | > 100 µM (inactive) | – | > 100 µM (inactive) | > 100 µM (inactive) | 76.7 µM (inactive) | > 100 µM (inactive) | > 100 µM (inactive) | > 100 µM (inactive) | > 100 µM (inactive) | > 100 µM (inactive) | > 100 µM (inactive) | – | > 100 µM (inactive) | > 100 µM (inactive) | > 100 µM (inactive) | > 100 µM (inactive) | > 100 µM (inactive)
5 | CCOC(=O)C1(C#N)C(c2ccccc2)CC(O)(c2ccc(OC)cc2)C(C(=O)c2ccc(OC)cc2)C1c1ccccc1 (centres undefined) | > 100 µM (inactive) | > 100 µM (inactive) | > 100 µM (inactive) | > 100 µM (inactive) | > 100 µM (inactive) | > 100 µM (inactive) | > 100 µM (inactive) | > 100 µM (inactive) | > 100 µM (inactive) | > 100 µM (inactive) | > 100 µM (inactive) | > 100 µM (inactive) | > 100 µM (inactive) | > 100 µM (inactive) | > 100 µM (inactive) | 98.2 µM (inactive) | – | – | > 100 µM (inactive) | > 100 µM (inactive)
6 | CCc1ncc(C(C)(O)c2ccccc2)n1Cc1ccccc1 (centres undefined) | 42.1 µM (inactive) | 29.8 µM (inactive) | 0.294 µM (active) | 31.8 µM (inactive) | 14.8 µM (inactive) | 36.1 µM (inactive) | 29.4 µM (inactive) | 40.6 µM (inactive) | 99.8 µM (inactive) | 67.6 µM (inactive) | 21.5 µM (inactive) | 0.124 µM (active) | 42.4 µM (inactive) | < 0.01 µM (active) | 56.2 µM (inactive) | 35.4 µM (inactive) | 37.2 µM (inactive) | – | 31 µM (inactive) | > 100 µM (inactive)
7 | CC(C)CCNc1ncnc2[nH]ncc12 | 59.4 µM (inactive) | 91.2 µM (inactive) | > 100 µM (inactive) | > 100 µM (inactive) | – | > 100 µM (inactive) | 32 µM (inactive) | > 100 µM (inactive) | > 100 µM (inactive) | > 100 µM (inactive) | 60.3 µM (inactive) | > 100 µM (inactive) | > 100 µM (inactive) | 96.6 µM (inactive) | 26.4 µM (inactive) | 98.6 µM (inactive) | – | 45 µM (inactive) | 48.6 µM (inactive) | > 100 µM (inactive)
8 | CCOC(=O)CCC1(C(=O)OCC)CCCCC1=O (centres undefined) | > 100 µM (inactive) | > 100 µM (inactive) | – | > 100 µM (inactive) | – | > 100 µM (inactive) | > 100 µM (inactive) | > 100 µM (inactive) | > 100 µM (inactive) | > 100 µM (inactive) | – | > 100 µM (inactive) | > 100 µM (inactive) | > 100 µM (inactive) | > 100 µM (inactive) | – | > 100 µM (inactive) | > 100 µM (inactive) | > 100 µM (inactive) | > 100 µM (inactive)
9 | C=CCNC(=O)N(CCC)CCCC(NC(C)=O)C(=O)NCc1ccccc1 (centres undefined) | > 100 µM (inactive) | > 100 µM (inactive) | > 100 µM (inactive) | > 100 µM (inactive) | – | > 100 µM (inactive) | > 100 µM (inactive) | > 100 µM (inactive) | > 100 µM (inactive) | > 100 µM (inactive) | 79.1 µM (inactive) | – | > 100 µM (inactive) | > 100 µM (inactive) | > 100 µM (inactive) | > 100 µM (inactive) | > 100 µM (inactive) | > 100 µM (inactive) | > 100 µM (inactive) | > 100 µM (inactive)
10 | O=c1oc2ccc(-n3c(=O)c4ccccc4c4ccccc4c3=O)cc2c2ccccc12 | > 100 µM (inactive) | > 100 µM (inactive) | > 100 µM (inactive) | > 100 µM (inactive) | – | > 100 µM (inactive) | > 100 µM (inactive) | > 100 µM (inactive) | 50 µM (inactive) | > 100 µM (inactive) | > 100 µM (inactive) | > 100 µM (inactive) | > 100 µM (inactive) | > 100 µM (inactive) | > 100 µM (inactive) | > 100 µM (inactive) | > 100 µM (inactive) | > 100 µM (inactive) | > 100 µM (inactive) | 85.1 µM (inactive)
11 | CCOC(=O)Cc1cc(OC)c(OC)cc1/C(Cl)=C(\CO)c1ccc(OC)c(OC)c1 | – | 87.9 µM (inactive) | > 100 µM (inactive) | > 100 µM (inactive) | – | > 100 µM (inactive) | > 100 µM (inactive) | 57.7 µM (inactive) | – | > 100 µM (inactive) | – | > 100 µM (inactive) | > 100 µM (inactive) | – | > 100 µM (inactive) | > 100 µM (inactive) | – | – | – | 37.9 µM (inactive)
12 | C=C(C)C1Cc2c(cc(O)c3c(=O)c4ccccc4n(C)c23)O1 (centres undefined) | 19.9 µM (inactive) | 10.7 µM (inactive) | 28.7 µM (inactive) | > 100 µM (inactive) | 29.9 µM (inactive) | – | > 100 µM (inactive) | – | 21.5 µM (inactive) | 25.5 µM (inactive) | 37.1 µM (inactive) | 69.8 µM (inactive) | – | 14.2 µM (inactive) | – | 20.7 µM (inactive) | – | 24.3 µM (inactive) | > 100 µM (inactive) | 15.6 µM (inactive)
13 | COc1cc(C2c3cc4c(cc3[C@@H](Nc3cccc(CO)c3)C3COC(=O)[C@H]23)OCO4)cc(OC)c1O (some centres undefined) | 1 µM (active) | 0.438 µM (active) | – | 0.984 µM (active) | – | 1.33 µM (inactive) | 0.173 µM (active) | 1.32 µM (inactive) | 0.923 µM (active) | 1.61 µM (inactive) | 0.308 µM (active) | 0.624 µM (active) | 1.62 µM (inactive) | 0.156 µM (active) | 3.31 µM (inactive) | 0.205 µM (active) | 0.352 µM (active) | 0.293 µM (active) | 1.72 µM (inactive) | 1.27 µM (inactive)
14 | Nc1ncnc2c1ncn2C1C(O)C=C(CO)C1O (centres undefined) | – | > 625 µM (inactive) | – | > 625 µM (inactive) | – | > 625 µM (inactive) | – | > 625 µM (inactive) | > 625 µM (inactive) | > 625 µM (inactive) | > 625 µM (inactive) | > 625 µM (inactive) | > 625 µM (inactive) | > 625 µM (inactive) | – | > 625 µM (inactive) | > 625 µM (inactive) | – | > 625 µM (inactive) | –
15 | COC(=O)N[C@H](C(=O)NC(OCc1ccccc1)C1COC(C)(C)O1)C(C)O[Si](C)(C)C(C)(C)C (some centres undefined) | – | – | > 100 µM (inactive) | 24.3 µM (inactive) | 26.4 µM (inactive) | > 100 µM (inactive) | 59.4 µM (inactive) | – | > 100 µM (inactive) | > 100 µM (inactive) | – | > 100 µM (inactive) | > 100 µM (inactive) | 92.5 µM (inactive) | > 100 µM (inactive) | 96.2 µM (inactive) | – | > 100 µM (inactive) | – | > 100 µM (inactive)
16 | OC1(c2ccc(Cl)cc2)c2ccc3ccccc3c2C2=N[C@H]3CCCC[C@@H]3N21 (some centres undefined) | 10.3 µM (inactive) | 3.24 µM (inactive) | 2.52 µM (inactive) | – | – | 1.55 µM (inactive) | – | 1.63 µM (inactive) | 9.02 µM (inactive) | 14 µM (inactive) | 43.8 µM (inactive) | 3.27 µM (inactive) | 13.5 µM (inactive) | 2.54 µM (inactive) | 3.09 µM (inactive) | 12.2 µM (inactive) | 5.71 µM (inactive) | 20.3 µM (inactive) | 5.16 µM (inactive) | 3.5 µM (inactive)
17 | O=c1c2cc(I)ccc2nc(-c2cccs2)n1O | 37.5 µM (inactive) | 28.1 µM (inactive) | 64.3 µM (inactive) | 48.6 µM (inactive) | 33.8 µM (inactive) | 38.1 µM (inactive) | 59 µM (inactive) | 15.6 µM (inactive) | 38.4 µM (inactive) | – | 52.6 µM (inactive) | 38.8 µM (inactive) | 30.5 µM (inactive) | 48.9 µM (inactive) | 26.4 µM (inactive) | 28.8 µM (inactive) | 44.6 µM (inactive) | – | 32.6 µM (inactive) | > 100 µM (inactive)
